Read-outs that look alike come from different tables or passages of the source.
Tests used:
[1] = 3 g 30 min before bedtime, next daytime, mean ± standard error
Method: (§1) A single-blind crossover study aimed at confirmation of the effect of glycine on sleep was performed with 7 male adults (30s-40s, body weight 62-79 kg). The test participants took glycine (granule containing citric acid and the like) in an amount equivalent to 3 g of glycine 30 min before bedtime, and reduced maltose containing components other than glycine (citric acid and the like) and adjusted to an almost indistinguishable taste was used as a placebo. The sleep hours on the day of administration was limited to about 75% (5-6.5 hr) of comfortable sleep hours each test participant voluntarily notified, and a nap was prohibited until the end of the administration. For the test, glycine and placebo were each taken for 3 days with an interval of a 14-21 day non-intake period, totaling 4-5 weeks. Of the 3 days, the following investigation and measurement were performed at 10 o'clock, 14 o'clock and 18 o'clock of the next day of the first day of the intake.
(2) To evaluate the cognitive and psychomotor function as a reflection of the quality of sleep, an operation efficiency test using a computer was performed. As a three kind discrimination response task, a task of responding to only one predetermined kind from randomly designed three kinds of graphics on the screen was given.

[2] = Excerpt: Table 5 reports the bowel movements on the next morning and the corresponding number of days.
[3] = rats, 2 g/kg, mean±standard error
Method: Glycine (substantially pure glycine powder) was administered to rats at 0 g/kg and 2 g/kg (0 g/kg for control) and using the rat, spontaneous electroencephalogram and cervix electromyogram were recorded through an electrode placed in the cortex hippocampus, and further, the amount of spontaneous motor activity was measured by an infrared ray monitor. The sleep-wake cycle was analyzed from the electroencephalogram, electromyogram and behavior record (kymogram), and percent occupation of light period and dark period and latency time were calculated.

[4] = 3 g 30 min before bedtime, sleep limited to about 75%, next daytime, mean ± standard error
Method: as §1
In addition, the p value is a statistical value showing the probability when the difference between glycine and placebo was hypothesized to be null. Particularly, this value of 0.05 or below is considered to indicate a significant difference.

[5] = Voluntary comments on quality of sleep, 77 participants (Experimental Example 5); settings: 3 g glycine
[6] = test participant A, tablet intake (1 g) before bed
[7] = test participant B, intake (3 g) with yoghurt before bed
[8] = test participant B, powder intake (3 g) before bed
[9] = 0-3 hr after administration, dark period
[10] = 0-3 hr after administration, light period
[11] = 4-6 hr after administration, dark period
[12] = 4-6 hr after administration, light period
[13] = voluntary comments of 77 participants

NCC(=O)O [glycine, Glycine]
Response time ([1]; placebo 0.393 ± 0.025, p value 0.028): 0.366 ± 0.021 s
Lapse (number of response where reaction time was 500 msec or longer) ([1]; placebo 2.67 ± 3.06, p value 0.017): 1.19 ± 1.69 times
percentage of correct answer ([1]; placebo 95.6 ± 5.20, p value 0.043): 98.4 ± 1.16%
No bowel movement (next morning) [2, 6]: 2 days
Presence of bowel movement (next morning) [2, 6]: 10 days
No bowel movement (next morning) [2, 7]: 0 days
Presence of bowel movement (next morning) [2, 7]: 4 days
No bowel movement (next morning) [2, 8]: 1 days
Presence of bowel movement (next morning) [2, 8]: 7 days
Percent occupation, fast wave sleep stage [3, 9]: 3.2 ± 1.7%
Percent occupation, slow wave sleep stage [3, 9]: 29.2 ± 6.5%
Percent occupation, waking stage [3, 9]: 67.6 ± 7.9%
Percent occupation, fast wave sleep stage [3, 10]: 5.5 ± 1.6%
Percent occupation, slow wave sleep stage [3, 10]: 54.9 ± 4.9%
Percent occupation, waking stage [3, 10]: 39.6 ± 6.0%
Percent occupation, fast wave sleep stage [3, 11]: 3.0 ± 0.7%
Percent occupation, slow wave sleep stage [3, 11]: 31.5 ± 2.8%
Percent occupation, waking stage [3, 11]: 65.6 ± 3.4%
Percent occupation, fast wave sleep stage [3, 12]: 13.4 ± 2.1%
Percent occupation, slow wave sleep stage [3, 12]: 65.9 ± 2.0%
Percent occupation, waking stage [3, 12]: 20.7 ± 0.8%
Amount of spontaneous motor activity at 6 hr after administration ([3]; dark period): 19464 ± 2765 count
Latency time, fast wave sleep stage ([3]; dark period): 118.2 ± 28.3 min
Latency time, slow wave sleep stage ([3]; dark period): 78.6 ± 22.8 min
Amount of spontaneous motor activity at 6 hr after administration ([3]; light period): 2316 ± 295 count
Latency time, fast wave sleep stage ([3]; light period): 20.9 ± 3.4 min
Latency time, slow wave sleep stage ([3]; light period): 8.5 ± 1.2 min
lassitude (SAM lassitude check list total points) ([4]; placebo 9.0 ± 0.68, p value 0.025): 7.0 ± 0.74
sleepiness (distance from left end of 100 mm line) ([4]; placebo 50.7 ± 4.39, p value 0.042): 38.1 ± 4.47 mm
participants commenting that no effect was found ([5]; out of 77 participants): 17 participants
participants commenting that the quality of sleep was improved ([5]; out of 77 participants): 58 participants
participants commenting that the quality was degraded ([5]; out of 77 participants): 2 participants
Awakening was fresh: Degrading effect [5, 13]: 1 person
Awakening was fresh: Enhancing effect on quality of sleep [5, 13]: 24 person
Deep sleep was realized: Degrading effect [5, 13]: 0 person
Deep sleep was realized: Enhancing effect on quality of sleep [5, 13]: 8 person
Did not wake up at midnight: Degrading effect [5, 13]: 1 person
Did not wake up at midnight: Enhancing effect on quality of sleep [5, 13]: 6 person
Fell asleep easily: Degrading effect [5, 13]: 0 person
Fell asleep easily: Enhancing effect on quality of sleep [5, 13]: 6 person
Had no dream: Degrading effect [5, 13]: 0 person
Had no dream: Enhancing effect on quality of sleep [5, 13]: 4 person
Sleep was deeper: Degrading effect [5, 13]: 0 person
Sleep was deeper: Enhancing effect on quality of sleep [5, 13]: 10 person
Slept well: Degrading effect [5, 13]: 0 person
Slept well: Enhancing effect on quality of sleep [5, 13]: 2 person
Snoring decreased: Degrading effect [5, 13]: 0 person
Snoring decreased: Enhancing effect on quality of sleep [5, 13]: 19 person
sleepiness during daytime reduced: Degrading effect [5, 13]: 0 person
sleepiness during daytime reduced: Enhancing effect on quality of sleep [5, 13]: 4 person

From patent publication US10561629B2, “Food containing glycine and use thereof” (AJINOMOTO CO., INC., priority 2004, dated 2020)
